Read-outs that look alike come from different tables or passages of the source.
How the values were obtained:
[1] = tested on: pERK in HCT-116 cells (KRAS G13D); assay: Phospho-ERK inhibition (AlphaLISA SureFire Ultra p-ERK 1/2), HCT116; format: cell-based, human; settings: HCT116 cells; for HCT116 pERK % Ymin (lowest value of the IC50 curve): Ymin above −20% = minimal or no paradoxical activation; for HCT116 pERK Ymin %: Ymin in brackets
How it was run: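 p-ERK1/2 (Thr202/Tyr204) in lysates measured by AlphaLISA after 1 h compound exposure of overnight-plated cells (RPMI-1640, 5% FBS, 0.5% DMSO, ten concentrations, usually from 10 μM). Background from a trametinib control subtracted, inhibition normalised to vehicle, and IC50 fitted with a variable-slope four-parameter model.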

CRAF = CRAF (Homo sapiens, UniProt P04049); assay: CRAF kinase activity assay (ADP-Glo); format: biochemical
Chain of CRAF (P04049 whole entry, looked up): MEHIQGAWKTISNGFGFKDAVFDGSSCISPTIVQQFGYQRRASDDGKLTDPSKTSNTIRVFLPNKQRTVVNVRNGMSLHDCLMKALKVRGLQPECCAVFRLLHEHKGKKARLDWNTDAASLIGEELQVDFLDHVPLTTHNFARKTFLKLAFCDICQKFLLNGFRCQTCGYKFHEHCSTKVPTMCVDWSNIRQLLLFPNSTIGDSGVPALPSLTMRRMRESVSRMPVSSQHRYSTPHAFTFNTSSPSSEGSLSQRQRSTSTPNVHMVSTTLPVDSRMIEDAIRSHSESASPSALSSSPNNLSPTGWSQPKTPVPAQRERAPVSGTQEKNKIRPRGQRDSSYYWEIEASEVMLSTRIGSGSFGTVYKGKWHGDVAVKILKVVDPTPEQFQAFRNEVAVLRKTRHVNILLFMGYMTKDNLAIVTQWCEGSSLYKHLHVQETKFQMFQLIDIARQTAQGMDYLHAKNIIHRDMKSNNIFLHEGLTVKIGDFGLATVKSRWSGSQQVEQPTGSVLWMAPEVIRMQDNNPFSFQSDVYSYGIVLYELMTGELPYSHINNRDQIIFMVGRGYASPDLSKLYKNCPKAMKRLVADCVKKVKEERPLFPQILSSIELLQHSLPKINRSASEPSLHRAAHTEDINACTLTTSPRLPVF
Method: (§1) Compound preparation: solid samples of each substances in 1 dram vials were suspended in DMSO (Fisher Scientific) at a stock concentration of 20 mM. Stocks were kept at −20° C. and protected from light.
(§2) In vitro enzymatic reactions were used for evaluating compounds intrinsic activity against BRAF, CRAF and ARAF. […] Separate reactions were performed with the MEK1 substrate and ATP as a blank control.
(§3) For compound treatment, 5 μL/well of test substance solution are placed in a 384-well proxyplate (Perkin Elmer) and mixed with 2× concentrated kinase reactions. The dilution series is selected so that nine concentrations cover a range from 100 nM to 0.01 nM. […] The final concentration of DMSO in the assay is set at 0.05%.
(§4) BRAF and CRAF kinase reactions were carried out for a total of 2 hours at 30° C. and then stopped by ½ dilution in ADP-Glo Reagent (cat #V9102; Promega; part V912C). Reactions were then incubated for 1h at room temperature before addition of one volume of Kinase Detection Reagent (cat #V9102; Promega; part V917A). Plates were then equilibrated at room temperature for 30 minutes before detection of luminescence on a Synergy Neo2 plate reader (Biotek). The effect of each compound dilution on BRAF and CRAF kinase activity was expressed as % inhibition and calculated as follows.
(§5) IC50 values were obtained by plotting the kinase inhibition values and fitting the dose-activity curves using a log(agonist) versus response-variable slope (four parameters) function using either GraphPadPrism (V7.0) or Dotmatics Screening Ultra platform.

BRAF = BRAF (Homo sapiens (Human), UniProt P15056); assay: BRAF kinase activity assay (ADP-Glo); format: biochemical
Chain of BRAF (P15056 whole entry): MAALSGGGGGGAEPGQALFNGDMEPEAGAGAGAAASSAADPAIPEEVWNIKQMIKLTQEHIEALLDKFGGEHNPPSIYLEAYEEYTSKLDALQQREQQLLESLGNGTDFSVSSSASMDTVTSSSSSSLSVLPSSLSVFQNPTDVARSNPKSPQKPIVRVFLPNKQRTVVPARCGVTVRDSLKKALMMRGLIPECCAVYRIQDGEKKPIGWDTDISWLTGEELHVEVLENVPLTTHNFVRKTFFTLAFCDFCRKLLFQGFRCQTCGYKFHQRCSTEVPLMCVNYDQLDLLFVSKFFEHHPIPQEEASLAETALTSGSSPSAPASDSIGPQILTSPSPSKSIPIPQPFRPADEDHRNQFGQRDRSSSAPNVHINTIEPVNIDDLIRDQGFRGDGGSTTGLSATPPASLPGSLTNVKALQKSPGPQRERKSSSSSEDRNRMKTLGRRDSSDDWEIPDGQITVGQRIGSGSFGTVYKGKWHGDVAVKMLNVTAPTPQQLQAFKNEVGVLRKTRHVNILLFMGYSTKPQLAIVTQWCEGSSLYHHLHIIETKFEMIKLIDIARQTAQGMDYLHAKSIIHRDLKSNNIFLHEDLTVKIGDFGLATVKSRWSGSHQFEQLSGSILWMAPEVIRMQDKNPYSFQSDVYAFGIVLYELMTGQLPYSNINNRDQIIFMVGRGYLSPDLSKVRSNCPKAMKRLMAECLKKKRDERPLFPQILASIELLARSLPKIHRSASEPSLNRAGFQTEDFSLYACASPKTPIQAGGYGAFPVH
Method: as §1, §2, §3, §4, §5

[2] = tested on: pERK in SW480 cells (KRAS G12D); assay: Phospho-ERK inhibition (AlphaLISA), SW480; format: cell-based, human; settings: SW480 cells; for SW480 pERK Ymin %: Ymin in brackets; for IC50: class symbol before the bracket
Method: All cancer cell lines (A375, A101D, A2058, RKO, HT29 SK-MEL 30, IPC298, HepG2, HCT-116, Lovo, SWV620, SW480, NCI-H358, NCI-H2122, Calu-6, NCIH2087, NCIH1755, NCIH1666 and Mewo) were obtained from ATCC and cultured in RPMI-1640 medium (Gibco) supplemented with 5% heat inactivated fetal bovine serum (FBS, Wisent) at 37° C. under 5% CO2. Cells were maintained in T175 flasks (Greiner). They were passaged by removing the culture medium, washing once in 10 mL of room temperature Phosphate Buffered Saline (PBS; Wisent) and incubating at 37° C. with 2 mL of 0.05% Trypsin (Thermo-Fisher). Trypsin was then inactivated by adding complete growth medium and the cells were then replated in a T175 culture dish at the appropriate dilution. All cell lines were routinely tested for mycoplasma contamination. Tissue type and mutational status of each cell line can be found in Table B.
AlphaLISA® SureFire® Ultra™ p-ERK 1/2 (Thr202/Tyr204) analysis was conducted on cells plated in 100 μL of complete RPMI-1640 growth medium in 96-well flat-bottomed transparent dishes (Costar) at a density indicated in Table C. Cells were maintained overnight at 37° C. under 5% CO2 before treatment with compounds' dilution series for one hour. The cell density in cells/cm^2 corresponds to cell number divided by the area of one well of a 96-well plate ([…]).
In a dilution series 100 μL/well of test substance dilution prepared in complete RPMI-1640 growth media was added to the cells. The dilution series is selected so that ten concentrations cover a range from 10 μM to 0.33 nM. If necessary the initial concentration of 10 μM is increased to 100 μM or lowered to 1 μM (as in the case of A375 and H1666 cells, which are generally more sensitive to the compounds) and further dilution is carried out accordingly. The final concentration of DMSO in the assay is set at 0.5%.
After treatment, media was removed and cells were lysed in 50 μL of 1× AlphaScreen Ultra Lysis Buffer (Perkin Elmer). The AlphaLISA® SureFire® Ultra™ p-ERK 1/2 (Thr202/Tyr2O4) (PerkinElmer) reactions were performed with 5 μL of cell lysate according to the manufacturer's specifications in 384-well proxyplates (Perkin Elmer) followed by overnight incubation of the reactions at room temperature in a humidified chamber. After completion of the reactions, the signals were recorded on an EnVision plate reader (Perkin Elmer) using built in AlphaLISA® settings.
The effect of each compound dilution on the pERK signal was expressed in % inhibition and calculated as follows. An internal 100% inhibition control ([…] trametinib, cat #HY-10999; MedChem Express; CAS #871700-17-3) was included in each plate and used as a measure of pERK background. First, the value obtained for trametinib was subtracted from each data point. The average of DMSO (vehicle) controls (set as 0% inhibition) was established and used to calculate % inhibition: % inhibition=100*(1-((pERK signalcompound)/(pERK signalDMSO)))
The ability of each compound to inhibit pERK signal was expressed as an IC50 value obtained by plotting the inhibition values for each data point of a dilution series and fitting the obtained curves using a log(agonist) versus response-variable slope (four parameters) function using GraphPadPrism (V7.0) or Dotmatics Screening Ultra platform.
When present, paradoxical pERK induction is inferred from the negative % inhibition values observed in the pERK IC50 curves of a compound.

[3] = CRAF, read-out: Kinase IC50 (nM), CRAF biochemical kinase assay
[4] = class symbol before the bracket

Compound	HCT116 pERK Ymin % [1] [%]	IC50 [1, 4] [nM]	SW480 pERK Ymin % [2] [%]	IC50 [2] [nM]	also measured
O=S1(=O)CCN(c2cccc3c2ncn3-c2ccc3ncnc(Nc4c(F)ccc(NS(=O)(=O)c5cccc(Cl)c5Cl)c4F)c3n2)CC1 [Example 628]	–	–	–	–	IC50 [1]: 500 to 1000 nM; HCT116 pERK % Ymin (lowest value of the IC50 curve) [1]: 0%; IC50 (CRAF; [3]): < 10 nM
O=S(=O)(Nc1ccc(F)c(Nc2ncnc3ccc(-n4cnc5c(N6CCNCC6)cccc54)nc23)c1F)c1cccc(Cl)c1Cl [Example 634]	–	–	–	–	IC50 [1]: < 500 nM; HCT116 pERK % Ymin (lowest value of the IC50 curve) [1]: −2%; IC50 (BRAF; BRAF, read-out: Kinase IC50 (nM), BRAF biochemical kinase assay): < 1 nM; IC50 (CRAF; [3]): < 10 nM
Cc1c(F)cccc1S(=O)(=O)Nc1ccc(F)c(Nc2ncnc3ccc(-n4cnc(/C=C/C#N)c4)nc23)c1F [Example 343, (E)-N-(3-((6-(4-(2-cyanovinyl)-1H-imidazol-1-yl)pyrido[3,2-d]pyrimidin-4-yl)amino)-2,4-difluorophenyl)-3-fluoro-2-methylbenzenesulfonamide]	–	–	–	–	IC50 ([1]; Homo sapiens, HCT-116, class symbol): < 500 nM; IC50 (BRAF; first kinase column (c6), * symbols, read-out: Kinase IC50): 1 to 10 nM; IC50 (CRAF; § symbols, read-out: Kinase IC50): 10 to 50 nM
O=C(Nc1cccc2c1ncn2-c1ccc2ncnc(Nc3c(F)ccc(NS(=O)(=O)c4ccccc4Cl)c3F)c2n1)N1CCOCC1 [Example 149]	8.5	500 to 1000	–	–	IC50 (BRAF; read-out: Kinase IC50 (nM) BRAF): 1 to 10 nM; IC50 (CRAF; read-out: Kinase IC50 (nM) CRAF): 10 to 50 nM
COc1ccc(S(=O)(=O)Nc2ccc(F)c(Nc3ncnc4ccc(-n5cnc(C)c5C)nc34)c2F)cc1 [Ex 32]	17	1000 to 10000	2	1000 to 10000	–
NC(=O)c1cccc(-c2ccc3ncnc(Nc4c(F)ccc(NS(=O)(=O)c5ccccc5Cl)c4F)c3n2)c1 [Example 80]	11	1000 to 10000	10	1000 to 10000	–
COc1ccc(S(=O)(=O)Nc2ccc(F)c(Nc3ncnc4ccc(-n5cnc6nccnc65)nc34)c2F)c(C)c1 [Ex 60]	−10	1000 to 10000	10	1000 to 10000	–
Cc1c(Cl)cccc1S(=O)(=O)Nc1ccc(F)c(Nc2ncnc3ccc(-n4nc(C(=O)N5CCNCC5)c5ccccc54)nc23)c1F [Example 127]	−1.2	< 500	−3.8	< 500	–
N#Cc1cccc(-c2ccc3ncnc(Nc4c(F)ccc(NS(=O)(=O)c5ccccc5Cl)c4F)c3n2)c1 [Ex 77]	−8	1000 to 10000	2	1000 to 10000	–
COc1ccc(S(=O)(=O)Nc2ccc(F)c(Nc3ncnc4ccc(-c5ccc(OC)nc5)nc34)c2F)c(C)c1 [Example 71]	−4	1000 to 10000	8	1000 to 10000	–
NC(=O)c1ccc(-c2ccc3ncnc(Nc4c(F)ccc(NS(=O)(=O)c5ccccc5Cl)c4F)c3n2)cc1 [Example 81]	−4	1000 to 10000	15	1000 to 10000	–
COc1ccc(S(=O)(=O)Nc2ccc(F)c(Nc3ncnc4ccc(-c5cnc(OC)nc5)nc34)c2F)c(C)c1 [Ex 57]	-8	1000 to 10000	-9	1000 to 10000	–
COc1ccc(S(=O)(=O)Nc2ccc(F)c(Nc3ncnc4ccc(-c5cn[nH]c5)nc34)c2F)c(C)c1 [Ex 64]	4	1000 to 10000	16	1000 to 10000	–
COc1ccc(S(=O)(=O)Nc2ccc(F)c(Nc3ncnc4ccc(-c5cccc(CO)c5)nc34)c2F)c(C)c1 [Ex 74]	1	1000 to 10000	3.3	1000 to 10000	–
COc1ccc(S(=O)(=O)Nc2ccc(F)c(Nc3ncnc4ccc(-n5cnc6c(NC(C)=O)cccc65)nc34)c2F)c(C)c1 [Ex 79]	1.5	500 to 1000	9.4	500 to 1000	–
COc1ccc(S(=O)(=O)Nc2ccc(F)c(Nc3ncnc4ccc(-n5cnc6c([N+](=O)[O-])cccc65)nc34)c2F)c(C)c1 [Example 70]	−3	1000 to 10000	5	1000 to 10000	–
COc1ccc(S(=O)(=O)Nc2ccc(F)c(Nc3ncnc4ccc(-c5ccsc5)nc34)c2F)c(C)c1 [Ex 58]	−1	10000 to 30000	2	1000 to 10000	–
COc1ccc(S(=O)(=O)Nc2ccc(F)c(Nc3ncnc4ccc(-c5cncnc5)nc34)c2F)c(C)c1 [Ex 56]	−9	1000 to 10000	7	500 to 1000	–
COc1ccc(S(=O)(=O)Nc2ccc(F)c(Nc3ncnc4ccc(-n5ccnc5)nc34)c2F)cc1 [Ex 33]	5	1000 to 10000	0	1000 to 10000	–
COc1ccc(S(=O)(=O)Nc2ccc(F)c(Nc3ncnc4ccc(-c5cccc(O)c5)nc34)c2F)c(C)c1 [Ex 72]	1	1000 to 10000	−7	1000 to 10000	–

Reference: patent publication US12139488B2, “Pyrido[3,2-d]pyrimidine compounds uses thereof for treating a proliferative disease” (Universite de Montreal, priority 2021, dated 2024)
